From US20240400577A1, “MODULATORS OF PROTEIN KINASES” (VIBLIOME THERAPEUTICS, LLC, priority 2021, published 2024)

How the values were obtained:
Test in all cases: Kinase panel enzymatic inhibition assay (Nanosyn)
Type in all cases: biochemical
Abl1 = biological target: T1, Abl1 (Homo sapiens, UniProt P00519); details: compound 5 μM; ATP at Km; 30-minute pre-incubation
T1 construct: purchased Nanosyn (contract screening)
Protocol: (§1) The disclosed compounds were tested for activity against a panel of at least 300 kinases. Kinase panel screening was conducted by Nanosyn (Santa Clara, CA 95051) using an enzymatic inhibition assay accepted as valid by those skilled in the art (e.g., the Caliper LabChip® mobility shift assay, an ADP detection assay, or time-resolved fluorescence detection technology. Compounds were screened at a concentration of 5 μM using an ATP concentration at the Km for each of the respective kinases and a 30-minute pre-incubation time-point.
(§2) In Table 1 and 2, kinase inhibition is classified by: A=95% or greater, B=90%-94%, C=80%-89%, and D=79% and less with a compound concentration of 5 JIM. In Table 3 and 4, kinase inhibition is reported in terms of IC50 values corresponding to A=less than 500 nm, B=500 nm to less than 1 μM, C=1 μM to less than 10 μM, and D=10 μM or greater using a compound concentration of 5 μM.

Abl2 = biological target: T2, Abl2 (Homo sapiens, UniProt P42684); details: compound 5 μM; ATP at Km; 30-minute pre-incubation
T2 construct: purchased Nanosyn (contract screening)
Protocol: as §1, §2

BLK = biological target: T3, BLK (Homo sapiens, UniProt P51451); details: compound 5 μM; ATP at Km; 30-minute pre-incubation
T3 construct: purchased Nanosyn (contract screening)
T3 sequence (P51451 whole entry): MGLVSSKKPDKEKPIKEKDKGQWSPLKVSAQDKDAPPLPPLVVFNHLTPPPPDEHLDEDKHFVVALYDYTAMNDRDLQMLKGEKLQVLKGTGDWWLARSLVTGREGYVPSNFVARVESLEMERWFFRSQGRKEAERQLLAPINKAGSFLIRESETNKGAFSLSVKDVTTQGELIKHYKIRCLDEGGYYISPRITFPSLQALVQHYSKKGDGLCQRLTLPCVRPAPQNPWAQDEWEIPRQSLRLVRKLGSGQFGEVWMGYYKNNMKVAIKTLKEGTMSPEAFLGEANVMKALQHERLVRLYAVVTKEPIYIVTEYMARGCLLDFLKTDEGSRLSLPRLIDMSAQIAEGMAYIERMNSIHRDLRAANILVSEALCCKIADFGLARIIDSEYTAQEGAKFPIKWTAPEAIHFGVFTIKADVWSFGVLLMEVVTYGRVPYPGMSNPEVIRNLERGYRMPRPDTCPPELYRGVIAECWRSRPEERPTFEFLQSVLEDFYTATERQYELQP
Protocol: as §1, §2

BRK = biological target: T4, BRK (Homo sapiens, UniProt Q13882); details: compound 5 μM; ATP at Km; 30-minute pre-incubation
T4 construct: purchased Nanosyn (contract screening)
T4 sequence (Q13882 whole entry): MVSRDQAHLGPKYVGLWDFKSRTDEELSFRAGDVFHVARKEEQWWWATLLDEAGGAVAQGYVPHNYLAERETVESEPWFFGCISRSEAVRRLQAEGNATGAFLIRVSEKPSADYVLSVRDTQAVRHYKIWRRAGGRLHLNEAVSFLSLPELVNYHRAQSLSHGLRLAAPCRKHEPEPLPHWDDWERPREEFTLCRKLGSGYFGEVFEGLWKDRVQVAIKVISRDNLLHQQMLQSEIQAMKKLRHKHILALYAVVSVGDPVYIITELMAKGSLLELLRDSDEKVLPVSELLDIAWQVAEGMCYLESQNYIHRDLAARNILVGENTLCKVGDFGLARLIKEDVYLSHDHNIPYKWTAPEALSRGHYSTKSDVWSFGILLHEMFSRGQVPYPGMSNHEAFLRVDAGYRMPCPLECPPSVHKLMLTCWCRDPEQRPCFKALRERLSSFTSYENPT
Protocol: as §1, §2

CLK4 = biological target: T5, CLK4 (Homo sapiens, UniProt Q9HAZ1); details: compound 5 μM; ATP at Km; 30-minute pre-incubation
T5 construct: purchased Nanosyn (contract screening)
T5 sequence (Q9HAZ1 whole entry): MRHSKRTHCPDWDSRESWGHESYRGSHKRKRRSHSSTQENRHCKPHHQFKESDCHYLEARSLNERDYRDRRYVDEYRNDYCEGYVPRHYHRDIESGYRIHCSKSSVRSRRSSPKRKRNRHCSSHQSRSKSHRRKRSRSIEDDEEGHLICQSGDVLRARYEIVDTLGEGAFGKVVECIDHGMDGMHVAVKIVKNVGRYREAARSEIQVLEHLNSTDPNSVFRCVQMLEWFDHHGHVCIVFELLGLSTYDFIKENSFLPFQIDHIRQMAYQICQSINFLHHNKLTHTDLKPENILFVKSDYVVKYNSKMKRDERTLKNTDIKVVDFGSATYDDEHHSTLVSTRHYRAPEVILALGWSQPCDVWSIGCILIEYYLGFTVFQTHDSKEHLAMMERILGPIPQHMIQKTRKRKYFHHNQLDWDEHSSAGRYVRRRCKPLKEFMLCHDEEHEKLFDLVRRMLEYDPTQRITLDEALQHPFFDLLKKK
Protocol: as §1, §2

CSF1R = biological target: T6, CSF1R (Homo sapiens, UniProt P07333); details: compound 5 μM; ATP at Km; 30-minute pre-incubation
T6 construct: purchased Nanosyn (contract screening)
T6 sequence (P07333 20-972): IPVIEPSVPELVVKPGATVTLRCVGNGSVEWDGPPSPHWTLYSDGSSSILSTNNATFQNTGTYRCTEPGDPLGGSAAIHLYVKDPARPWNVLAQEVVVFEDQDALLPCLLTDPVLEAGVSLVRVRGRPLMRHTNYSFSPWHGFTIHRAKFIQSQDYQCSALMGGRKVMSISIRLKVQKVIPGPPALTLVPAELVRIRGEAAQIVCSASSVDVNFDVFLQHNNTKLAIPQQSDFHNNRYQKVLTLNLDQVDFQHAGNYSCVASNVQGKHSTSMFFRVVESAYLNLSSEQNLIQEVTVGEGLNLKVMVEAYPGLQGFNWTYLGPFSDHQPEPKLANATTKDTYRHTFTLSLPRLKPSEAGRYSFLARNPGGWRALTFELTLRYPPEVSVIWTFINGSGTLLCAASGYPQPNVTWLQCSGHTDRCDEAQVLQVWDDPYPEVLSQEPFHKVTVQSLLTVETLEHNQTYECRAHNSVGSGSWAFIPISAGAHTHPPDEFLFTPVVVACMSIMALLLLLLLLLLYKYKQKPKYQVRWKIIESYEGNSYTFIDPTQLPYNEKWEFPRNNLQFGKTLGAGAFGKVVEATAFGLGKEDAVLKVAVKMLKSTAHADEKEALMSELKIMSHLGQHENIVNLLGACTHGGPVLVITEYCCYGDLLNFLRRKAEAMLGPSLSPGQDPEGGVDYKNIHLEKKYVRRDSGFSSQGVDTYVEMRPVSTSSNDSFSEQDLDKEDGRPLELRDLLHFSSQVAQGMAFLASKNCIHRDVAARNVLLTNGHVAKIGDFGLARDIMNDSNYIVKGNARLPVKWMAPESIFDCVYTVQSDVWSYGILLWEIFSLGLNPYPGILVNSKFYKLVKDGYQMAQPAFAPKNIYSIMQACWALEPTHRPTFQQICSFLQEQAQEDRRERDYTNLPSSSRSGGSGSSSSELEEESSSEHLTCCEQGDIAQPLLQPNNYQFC
Protocol: as §1, §2

DDR1 = biological target: T7, DDR1 (Homo sapiens, UniProt Q08345); details: ATP at Km, 30-minute pre-incubation; for inhibition at 5 µM: compound 5 μM; for IC50: read-out: kinase inhibition in terms of IC50, DDR1
T7 construct: purchased Nanosyn (contract screening)
Protocol: as §1, §2

EPH = details: compound 5 μM; ATP at Km; 30-minute pre-incubation
Protocol: as §1, §2

LYNa = biological target: T8, LYNa (Homo sapiens, UniProt P07948); details: compound 5 μM; ATP at Km; 30-minute pre-incubation
T8 construct: purchased Nanosyn (contract screening)
T8 sequence (P07948 whole entry): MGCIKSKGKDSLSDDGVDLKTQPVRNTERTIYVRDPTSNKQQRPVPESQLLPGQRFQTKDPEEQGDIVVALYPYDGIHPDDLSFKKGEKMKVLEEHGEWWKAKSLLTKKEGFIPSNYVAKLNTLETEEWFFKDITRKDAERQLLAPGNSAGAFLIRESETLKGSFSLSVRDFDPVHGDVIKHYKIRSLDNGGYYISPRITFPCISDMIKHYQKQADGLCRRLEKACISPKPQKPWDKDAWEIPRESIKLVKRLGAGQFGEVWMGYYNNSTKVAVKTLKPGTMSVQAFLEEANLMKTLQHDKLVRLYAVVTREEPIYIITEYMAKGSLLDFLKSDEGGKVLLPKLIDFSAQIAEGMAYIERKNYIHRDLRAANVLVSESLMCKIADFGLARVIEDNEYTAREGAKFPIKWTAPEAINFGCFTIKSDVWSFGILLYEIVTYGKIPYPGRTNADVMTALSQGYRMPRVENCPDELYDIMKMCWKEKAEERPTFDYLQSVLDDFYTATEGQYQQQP
Protocol: as §1, §2

PDGFRb = biological target: T9, PDGFRb (Homo sapiens, UniProt P09619); details: compound 5 μM; ATP at Km; 30-minute pre-incubation
T9 construct: Nanosyn (contract laboratory that ran the panel)
Protocol: as §1, §2

PIKfyve = biological target: T10, PIKfyve (Homo sapiens, UniProt Q9Y2I7); details: compound 5 μM; ATP at Km; 30-minute pre-incubation
T10 construct: Nanosyn (contract laboratory that ran the panel)
T10 sequence (Q9Y2I7 whole entry): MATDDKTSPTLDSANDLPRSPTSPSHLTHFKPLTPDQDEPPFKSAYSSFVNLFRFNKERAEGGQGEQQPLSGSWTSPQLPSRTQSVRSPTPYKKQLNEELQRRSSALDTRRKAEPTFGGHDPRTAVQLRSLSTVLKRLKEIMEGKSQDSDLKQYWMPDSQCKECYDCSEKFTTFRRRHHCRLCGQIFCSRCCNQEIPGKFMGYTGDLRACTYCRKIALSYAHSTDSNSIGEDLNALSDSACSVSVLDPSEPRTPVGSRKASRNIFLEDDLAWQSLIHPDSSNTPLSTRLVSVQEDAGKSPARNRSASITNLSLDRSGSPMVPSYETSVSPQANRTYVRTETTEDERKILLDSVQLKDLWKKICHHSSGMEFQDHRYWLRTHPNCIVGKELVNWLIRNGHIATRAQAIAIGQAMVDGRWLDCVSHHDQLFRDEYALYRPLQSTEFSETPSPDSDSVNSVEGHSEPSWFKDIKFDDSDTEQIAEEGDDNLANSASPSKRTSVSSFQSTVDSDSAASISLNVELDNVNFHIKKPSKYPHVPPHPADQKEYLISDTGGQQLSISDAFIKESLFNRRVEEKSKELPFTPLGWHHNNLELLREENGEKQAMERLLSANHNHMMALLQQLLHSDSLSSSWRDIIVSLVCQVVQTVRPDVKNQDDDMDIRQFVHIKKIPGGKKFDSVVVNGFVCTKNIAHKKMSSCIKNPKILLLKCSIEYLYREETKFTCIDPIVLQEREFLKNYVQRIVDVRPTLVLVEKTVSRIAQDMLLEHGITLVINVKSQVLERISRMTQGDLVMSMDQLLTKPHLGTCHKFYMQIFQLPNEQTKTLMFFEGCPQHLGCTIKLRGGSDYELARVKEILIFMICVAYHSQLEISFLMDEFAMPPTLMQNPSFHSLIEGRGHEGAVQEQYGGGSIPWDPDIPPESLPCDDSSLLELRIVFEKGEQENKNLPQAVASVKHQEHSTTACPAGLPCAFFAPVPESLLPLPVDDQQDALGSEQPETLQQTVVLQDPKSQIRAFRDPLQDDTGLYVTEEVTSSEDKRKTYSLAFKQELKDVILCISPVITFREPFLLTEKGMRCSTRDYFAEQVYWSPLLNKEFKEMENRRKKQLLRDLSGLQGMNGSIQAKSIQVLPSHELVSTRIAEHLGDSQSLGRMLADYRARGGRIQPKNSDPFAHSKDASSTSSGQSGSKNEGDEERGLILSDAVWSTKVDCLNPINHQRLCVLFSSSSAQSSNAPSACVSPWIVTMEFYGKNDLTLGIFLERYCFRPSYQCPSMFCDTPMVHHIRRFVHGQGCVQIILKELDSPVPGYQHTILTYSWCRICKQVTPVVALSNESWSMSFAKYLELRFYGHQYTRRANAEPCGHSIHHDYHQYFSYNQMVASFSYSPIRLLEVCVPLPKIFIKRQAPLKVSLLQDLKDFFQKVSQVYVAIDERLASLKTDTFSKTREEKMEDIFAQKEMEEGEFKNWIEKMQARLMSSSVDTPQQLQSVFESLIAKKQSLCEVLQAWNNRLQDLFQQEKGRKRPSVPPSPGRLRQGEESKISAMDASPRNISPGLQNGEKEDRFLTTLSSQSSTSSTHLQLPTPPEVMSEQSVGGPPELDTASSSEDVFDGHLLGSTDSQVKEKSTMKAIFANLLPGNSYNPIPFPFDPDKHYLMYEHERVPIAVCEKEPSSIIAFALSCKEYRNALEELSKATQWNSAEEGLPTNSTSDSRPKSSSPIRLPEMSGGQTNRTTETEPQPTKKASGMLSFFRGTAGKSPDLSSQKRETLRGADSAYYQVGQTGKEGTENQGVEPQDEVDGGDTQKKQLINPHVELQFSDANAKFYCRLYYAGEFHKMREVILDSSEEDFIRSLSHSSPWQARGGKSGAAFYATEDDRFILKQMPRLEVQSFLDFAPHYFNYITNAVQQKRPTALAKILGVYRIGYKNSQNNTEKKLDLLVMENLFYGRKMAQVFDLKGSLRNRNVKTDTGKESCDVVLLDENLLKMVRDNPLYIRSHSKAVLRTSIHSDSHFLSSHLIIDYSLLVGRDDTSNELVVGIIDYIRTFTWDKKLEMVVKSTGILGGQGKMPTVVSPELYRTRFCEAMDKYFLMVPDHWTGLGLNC
Protocol: as §1, §2

RET = biological target: T11, RET (Homo sapiens, UniProt P07949); details: compound 5 μM; ATP at Km; 30-minute pre-incubation
T11 construct: Nanosyn (contract laboratory that ran the panel)
Protocol: as §1, §2

SGK3 = biological target: T12, SGK3 (Homo sapiens, UniProt Q96BR1); details: compound 5 μM; ATP at Km; 30-minute pre-incubation
T12 construct: Nanosyn (contract laboratory that ran the panel)
T12 sequence (Q96BR1 1-496): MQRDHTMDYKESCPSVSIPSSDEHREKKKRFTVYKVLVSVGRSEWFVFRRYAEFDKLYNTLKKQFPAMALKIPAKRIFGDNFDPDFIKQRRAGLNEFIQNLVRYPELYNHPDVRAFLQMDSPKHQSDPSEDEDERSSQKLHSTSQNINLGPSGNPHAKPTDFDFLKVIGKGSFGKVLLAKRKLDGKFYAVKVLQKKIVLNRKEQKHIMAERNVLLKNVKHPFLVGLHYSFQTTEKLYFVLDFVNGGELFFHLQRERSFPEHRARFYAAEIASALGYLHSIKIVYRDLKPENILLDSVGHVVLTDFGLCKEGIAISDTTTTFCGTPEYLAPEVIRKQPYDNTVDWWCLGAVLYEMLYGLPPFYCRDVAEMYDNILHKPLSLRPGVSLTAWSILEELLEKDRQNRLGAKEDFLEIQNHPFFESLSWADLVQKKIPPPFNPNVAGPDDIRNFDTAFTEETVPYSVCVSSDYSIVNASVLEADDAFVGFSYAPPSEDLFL
Protocol: as §1, §2

TAOK2 = biological target: T13, TAOK2 (Homo sapiens, UniProt Q9UL54); details: compound 5 μM; ATP at Km; 30-minute pre-incubation
T13 construct: Nanosyn (contract laboratory that ran the panel)
T13 sequence (Q9UL54 1-1235): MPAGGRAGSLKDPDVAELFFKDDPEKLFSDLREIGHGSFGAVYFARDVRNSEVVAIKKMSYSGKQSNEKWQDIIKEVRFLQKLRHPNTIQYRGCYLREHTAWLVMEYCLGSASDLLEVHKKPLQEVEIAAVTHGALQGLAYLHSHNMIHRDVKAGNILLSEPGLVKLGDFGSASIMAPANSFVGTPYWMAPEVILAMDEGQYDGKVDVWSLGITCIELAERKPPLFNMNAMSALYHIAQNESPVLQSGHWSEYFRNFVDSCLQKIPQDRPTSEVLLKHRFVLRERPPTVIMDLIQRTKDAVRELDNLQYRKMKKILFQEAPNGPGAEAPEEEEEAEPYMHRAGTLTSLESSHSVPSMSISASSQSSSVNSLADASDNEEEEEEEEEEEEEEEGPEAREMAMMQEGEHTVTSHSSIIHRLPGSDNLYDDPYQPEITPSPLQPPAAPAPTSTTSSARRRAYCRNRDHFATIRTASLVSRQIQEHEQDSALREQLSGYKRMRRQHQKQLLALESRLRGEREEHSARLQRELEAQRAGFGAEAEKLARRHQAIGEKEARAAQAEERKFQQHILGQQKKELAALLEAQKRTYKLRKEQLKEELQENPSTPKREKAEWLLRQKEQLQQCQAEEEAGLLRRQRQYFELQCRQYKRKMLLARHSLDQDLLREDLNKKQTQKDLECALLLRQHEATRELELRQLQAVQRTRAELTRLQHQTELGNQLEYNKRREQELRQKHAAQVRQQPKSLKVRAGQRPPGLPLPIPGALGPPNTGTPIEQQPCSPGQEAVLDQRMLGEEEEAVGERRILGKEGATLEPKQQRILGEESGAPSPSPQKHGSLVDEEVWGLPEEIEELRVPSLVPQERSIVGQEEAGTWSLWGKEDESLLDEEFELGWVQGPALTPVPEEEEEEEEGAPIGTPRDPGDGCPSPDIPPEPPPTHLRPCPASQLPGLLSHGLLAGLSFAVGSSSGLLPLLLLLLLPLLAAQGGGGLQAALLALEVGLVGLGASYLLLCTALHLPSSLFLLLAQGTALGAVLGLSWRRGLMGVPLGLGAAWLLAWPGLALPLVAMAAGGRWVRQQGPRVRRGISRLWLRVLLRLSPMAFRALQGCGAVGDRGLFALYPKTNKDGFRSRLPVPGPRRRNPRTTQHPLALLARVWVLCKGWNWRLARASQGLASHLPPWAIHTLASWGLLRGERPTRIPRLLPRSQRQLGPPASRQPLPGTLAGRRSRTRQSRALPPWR
Protocol: as §1, §2

ZAK = biological target: T14, ZAK (Homo sapiens, UniProt Q9NYL2); details: compound 5 μM; ATP at Km; 30-minute pre-incubation
T14 construct: Nanosyn (contract laboratory that ran the panel)
Protocol: as §1, §2

inhibition at 5 µM (Abl1) [%]	inhibition at 5 µM (Abl2) [%]	inhibition at 5 µM (BLK) [%]	inhibition at 5 µM (BRK) [%]	inhibition at 5 µM (CLK4) [%]	inhibition at 5 µM (CSF1R) [%]	inhibition at 5 µM (DDR1) [%]	kinase inhibition, EPH (EPH)	inhibition at 5 µM (LYNa) [%]	inhibition at 5 µM (PDGFRb) [%]	inhibition at 5 µM (PIKfyve) [%]	inhibition at 5 µM (RET) [%]	inhibition at 5 µM (SGK3) [%]	inhibition at 5 µM (TAOK2) [%]	inhibition at 5 µM (ZAK) [%]	IC50 (DDR1) [nM]	SMILES
< 79	< 79	< 79	< 79	< 79	< 79	< 79	D (D=79% and less)	< 79	80 to 89	< 79	90 to 94	< 79	< 79	< 79		Cc1ccc(NC(=O)c2cc(S(C)(=O)=O)n(-c3ccc(F)cc3)n2)cc1Nc1ccc2ncn(C)c(=O)c2c1 [Ex4, 1-(4-fluorophenyl)-N-(4-methyl-3-((3-methyl-4-oxo-3,4-dihydroquinazolin-6-yl)amino)phenyl)-5-(methylsulfonyl)-1H-pyrazole-3-carboxamide]
< 79	< 79	< 79	< 79	< 79	< 79	90 to 94	D (D=79% and less)	≥ 95	< 79	< 79	< 79	< 79	< 79	< 79		Cc1ccc(NC(=O)c2cc([S+](C)[O-])n(-c3ccc(F)cc3)n2)cc1Nc1ccc2ncn(C)c(=O)c2c1 (centres unmarked) [Ex5, 1-(4-fluorophenyl)-N-(4-methyl-3-((3-methyl-4-oxo-3,4-dihydroquinazolin-6-yl)amino)phenyl)-5-(methylsulfinyl)-1H-pyrazole-3-carboxamide]
< 79	≥ 95	80 to 89	80 to 89	< 79	90 to 94	≥ 95	D (D=79% and less)	90 to 94	≥ 95	90 to 94	90 to 94	< 79	< 79	< 79		Cc1ccc(NC(=O)c2cc([S+](C)[O-])n(-c3ccc(F)cc3)n2)cc1C#Cc1cnc2cccnn12 (centres unmarked) [Ex6, 1-(4-fluorophenyl)-N-(3-(imidazo[1,2-b]pyridazin-3-ylethynyl)-4-methylphenyl)-5-(methylsulfinyl)-1H-pyrazole-3-carboxamide]
< 79	< 79	< 79	< 79	< 79	< 79	< 79	D (D=79% and less)	< 79	< 79	< 79	< 79	< 79	< 79	< 79		CNC(=O)c1cc(Oc2ccc(F)c(NC(=O)c3cc([S+](C)[O-])n(-c4ccc(F)cc4)n3)c2)ccn1 (centres unmarked) [Ex7, 4-(4-fluoro-3-(1-(4-fluorophenyl)-5-(methylsulfinyl)-1H-pyrazole-3-carboxamido)phenoxy)-N-methylpicolinamide]
< 79	< 79	< 79	< 79	80 to 89	< 79	< 79	D (D=79% and less)	< 79	< 79	< 79	< 79	80 to 89	< 79	< 79		CSc1cc(C(=O)Nc2cc(Oc3ccnc(C(=O)NC4CNC4)c3)ccc2F)nn1-c1ccc(F)cc1 [Ex8, N-(azetidin-3-yl)-4-(4-fluoro-3-(1-(4-fluorophenyl)-5-(methylthio)-1H-pyrazole-3-carboxamido)phenoxy)picolinamide]
< 79	< 79	< 79	< 79	< 79	< 79	≥ 95	D (D=79% and less)	< 79	< 79	< 79	< 79	< 79	≥ 95	< 79		Cc1ccc(NC(=O)c2cc(S(C)(=O)=O)n(-c3ccc(F)cc3)n2)cc1-c1cc(OCCO)nc(N2CCOCC2)c1 [Ex9, 1-(4-fluorophenyl)-N-(3-(2-(2-hydroxyethoxy)-6-morpholinopyridin-4-yl)-4-methylphenyl)-5-(methylsulfonyl)-1H-pyrazole-3-carboxamide]
															< 500	COc1cc2nccc(Oc3ccc(NC(=O)c4cc(S(C)(=O)=O)n(-c5ccc(F)cc5)n4)c(F)c3)c2cc1OC [Ex71, N-(4-((6,7-dimethoxyquinolin-4-yl)oxy)-2-fluorophenyl)-1-(4-fluorophenyl)-5-(methylsulfonyl)-1H-pyrazole-3-carboxamide]
															< 500	COc1cc2nccc(Oc3ccc(NC(=O)c4cc(S(C)(=O)=O)n(-c5ccc(F)cc5)n4)cc3F)c2cc1OC [Ex73, N-(4-((6,7-dimethoxyquinolin-4-yl)oxy)-3-fluorophenyl)-1-(4-fluorophenyl)-5-(methylsulfonyl)-1H-pyrazole-3-carboxamide]
